biological target: T1, stromelysin (Homo sapiens, UniProt P08254); experiment: Determination of stromelysin inhibition (thiopeptide ester substrate cleavage, DTNB, microtiter plate); assay type: biochemical; conditions: not given
T1 construct: made in house; host or cells: E. coli
Protocol: The efficacy of the compounds of this invention as matrix metalloproteinase inhibitors was determined by measuring the inhibition of stromelysin. The inhibition of stromelysin by the compounds of this invention was determined as follows: Recombinant truncated stromelysin (human sequence) produced in E. coli was prepared by expression and purification of the protein as described by Ye et al., Biochemistry, 1992, 31, 11231-11235. The enzyme was assayed by its cleavage of the thiopeptide ester substrate Ac-Pro-Leu-Gly-[2-mercapto-4-methyl-pentanoyl]-Leu-Gly-OEt described by Weingarten and Feder, Anal. Biochem., 1985, 147, 437-440 (1985), as a substrate of vertebrate collagenase. The reported conditions were modified to allow assays to be carried out in a microtiter plate. Upon hydrolysis of the thioester bond, the released thiol group reacts rapidly with 5,5'-dithio-bis(2-nitrobenzoic acid) (DTNB), producing a yellow color which is measured by a microtiter plate reader set at 405 nm. The rates of cleavage of the substrate by stromelysin in the presence or absence of inhibitors are measured in a 30 min assay at ambient temperature. Solutions of the compounds in DMSO are prepared, and these are diluted at various concentrations into the assay buffer (50 mM MES/NaOH pH 6.5 with 10 mM CaCl2 and 0.2% Pluronic F-68), which is also used for dilution of the enzyme and substrate. The potency of the compounds [IC50 ] are calculated from the inhibition/inhibitor concentration data.

T1 sequence (P08254 100-272 limits assumed): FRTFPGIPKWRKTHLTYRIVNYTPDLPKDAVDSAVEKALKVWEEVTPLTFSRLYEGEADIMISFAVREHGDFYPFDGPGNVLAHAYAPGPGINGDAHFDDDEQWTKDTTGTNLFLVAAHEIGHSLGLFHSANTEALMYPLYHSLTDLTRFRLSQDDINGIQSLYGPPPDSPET

Row | SMILES | IC50
1 | CC(C)C[C@@H](C(=O)N[C@H](Cc1ccccc1)C(=O)c1c[nH]c2ccccc12)[C@H](O)C(=O)NO [Example 13] | 99 nM
2 | C=CC[C@H](C(=O)NO)[C@@H](CC(C)C)C(=O)NC(Cc1ccccc1)C(=O)c1cccnc1 (stereo partly drawn) [Example 22] | 10 nM
3 | C=CC[C@H](C(=O)NO)[C@@H](CC(C)C)C(=O)NC(Cc1ccccc1)C(=O)c1nccs1 (stereo partly drawn) [Example 26] | 220 nM

same assay, conditions: recombinant truncated stromelysin (human sequence); thiopeptide ester substrate, pH 6.5, 30 min, ambient temperature; read-out: IC50 (Inhibitory Potencies against Stromelysin)

Row | IC50 | SMILES
4 | 3.6 nM | C=CCCC[C@H](C(=O)NO)[C@@H](CC(C)C)C(=O)N[C@@H](Cc1ccccc1)C(=O)c1c[nH]c2ccccc12 [Example 2]
5 | 5.6 nM | CC(C)C[C@H](CC(=O)NO)C(=O)N[C@@H](Cc1ccccc1)C(=O)c1c[nH]c2ccccc12 [Example 5]
6 | 12 nM | Cc1ccc(CCC[C@H](CC(=O)NO)C(=O)N[C@@H](Cc2ccccc2)C(=O)c2c[nH]c3ccccc23)cc1 [Example 6]
7 | 8 nM | C=CCCC[C@H](C(=O)O)[C@@H](CCCc1ccc(C)cc1)C(=O)N[C@@H](Cc1ccccc1)C(=O)c1c[nH]c2ccccc12 [Example 7]
8 | 8.6 nM | C=CCCC[C@H](C(=O)NO)[C@@H](CCCc1ccc(C)cc1)C(=O)N[C@@H](Cc1ccccc1)C(=O)c1c[nH]c2ccccc12 [Example 8]
9 | 1.2 nM | C=CC[C@H](C(=O)NO)[C@@H](CC(C)C)C(=O)N[C@H](C(=O)c1c[nH]c2ccccc12)C(C)(C)C [Example 9]
10 | 7100 nM | CC(C)C[C@@H](C(=O)N[C@@H](Cc1ccccc1)C(=O)c1c[nH]c2ccccc12)[C@H](O)C(=O)O [Example 10]
11 | 93000 nM | CC(C)C[C@@H](C(=O)N[C@H](Cc1ccccc1)C(=O)c1c[nH]c2ccccc12)[C@H](O)C(=O)O [Example 11]
12 | 7.8 nM | CC(C)C[C@@H](C(=O)N[C@@H](Cc1ccccc1)C(=O)c1c[nH]c2ccccc12)[C@H](O)C(=O)NO [Example 12]
13 | 1.2 nM | CC(C)C[C@@H](C(=O)N[C@H](C(=O)c1c[nH]c2ccccc12)C(C)(C)C)[C@H](O)C(=O)NO [Example 14]
14 | 27 nM | CC(C)C[C@@H](C(=O)N[C@@H](Cc1ccccc1)C(=O)c1ccccc1)[C@H](O)C(=O)NO [Example 15]
15 | 16 nM | C=CC[C@H](C(=O)NO)[C@@H](CC(C)C)C(=O)N[C@@H](Cc1ccccc1)C(C)=O [Example 17]
16 | 4.5 nM | C=CC[C@H](C(=O)NO)[C@@H](CC(C)C)C(=O)N[C@@H](Cc1ccccc1)C(=O)c1ccccc1 [Example 18]
17 | 1.5 nM | C=CCCC[C@H](C(=O)NO)[C@@H](CC(C)C)C(=O)N[C@@H](Cc1ccc(O)cc1)C(=O)c1ccccc1 [Example 19]
18 | 7.3 nM | C=CC[C@H](C(=O)NO)[C@@H](CC(C)C)C(=O)N[C@@H](CC1CCCCC1)C(=O)c1ccccc1 [Example 20]
19 | 1.7 nM | C=CC[C@H](C(=O)NO)[C@@H](CC(C)C)C(=O)N[C@@H](Cc1ccccc1)C(=O)c1ccc[nH]1 [Example 21]
20 | 2.7 nM | O=C(c1c[nH]c2ccccc12)[C@H](Cc1ccccc1)NC(=O)[C@H](CCCc1ccccc1)[C@H](O)C(=O)NO [Example 27]
21 | 320 nM | O=C(c1c[nH]c2ccccc12)[C@H](Cc1ccccc1)NC(=O)[C@@H](CCCc1ccccc1)[C@H](O)C(=O)NO [Example 28]
22 | 320 nM | CON=C(c1c[nH]c2ccccc12)[C@H](Cc1ccccc1)NC(=O)[C@@H](CC(=O)NO)CC(C)C [Example 30]
23 | 740 nM | CC(C)C[C@H](CC(=O)NO)C(=O)N[C@@H](CC(=O)O)C(=O)c1c[nH]c2ccccc12 [Example 31]
24 | 110 nM | O=C(C[C@H](C(=O)N[C@@H](Cc1ccc(O)cc1)C(=O)c1ccccc1)C1CCCCC1)NO [Example 33]
